Results as given in US11878015B2, “Piperidine-substituted Mnk inhibitors and methods related thereto” (eFFECTOR Therapeutics Inc., priority 2017, dated 2024).
Where two headings read alike, the source gives them in different places.

How the values were obtained:
[1] = tested on: Phosphorylated eIF4E; test: peIF4E signaling cellular assay (CisBio peIF4E HTRF); format: cell-based; details: 2 hrs incubation at 37° C., 12-point curve 20 μM to 0.1 nM; read-out: pEI4IE signaling activity
Experimental: Phosphorylated eIF4E is assayed using the CisBio peIF4E HTRF® assay kit (CisBio, catalogue No. 64EF4PEG). Cells are plated in 96-well tissue-culture treated plate in appropriate growth medium (90 μL). Compounds (10×) are diluted using 3-fold serial dilutions in cell culture medium and added to cells. Plates are incubated for 2 hrs at 37° C. The cell supernatant is carefully removed either by aspirating supernatant or by flicking the plate. Immediately 50 μL of supplemented lysis buffer (1×) is added and incubated for at least 30 minutes at room temperature under shaking. After homogenization by pipeting up and down, 16 μL of cell lysate is transferred from the 96-well cell-culture plate to a 384-well small volume white plate. 4 μL of premixed antibody solutions (vol/vol) is prepared in the detection buffer and added. The plate is covered with a plate sealer and incubated overnight at room temperature. The fluorescence emissions at two different wavelengths are read (665 nm and 620 nm) on a Wallac Victor2. Emission ratios are converted into percent inhibitions and imported into GraphPad Prism software. […] IC50 values are determined using a nonlinear regression model available in GraphPad Prism 5.
To this end, IC50 values of less than 0.001 μM are labelled as “+++”, from 0.001 to 0.01 μM are labelled as “++”, and greater than 0.01 μM are labelled as “+” (NA means “not available”).

[2] = tested on: PD-1; test: PD-1 (CD279) expression on PHA/PMA-activated Jurkat T cells, flow cytometry; format: cell-based; details: Homo sapiens, percentage of inhibition of PD-1 positive cells at 10 μM, 48 hours
Experimental: To examine the effect of MNK inhibitors on PD-1 expression, Jurkat cells (Clone E6.1, ATCC, transformed T cells) were used, which express PD-1 when activated through T cell receptor (TCR) signaling. Briefly, Jurkat cells were grown in 1×RPMI with 1×Pen/Strep, and 10% FBS, then about 3×10^6 Jurkat cells were activated in presence of 1 μg/mL PHA (Sigma) and 50 ng/mL PMA (Sigma). Test Cells were treated simultaneously with various concentrations of an MNK inhibitor (0, 0.01, 0.1, 1, 3 and 10 μM). After 48 hours, culture supernatants were harvested and examined via sandwich ELISA for the presence of IL-2 using human IL-2 ELISA DuoSet (R&D Systems, Minneapolis, Minn.). The level of PD-1 on Jurkat cells was examined by incubating with human FcR block, then contacted with allophycocyanin (APC) conjugated anti-PD-1 antibody (5 μl per 100 μl volume of test, Biolegend, San Diego, CA) for 25 minutes at 4° C., without washing the cells, fixable dead cell stain (1:10,000; BD Biosciences, San Jose, CA) was added and incubated further for 10 minutes at 4° C. Cells were washed two times with flow buffer, and finally cells were fixed with fixation buffer for 15 minutes at 4° C. After fixation, cells were washed twice with flow buffer and re-suspended in flow buffer and assessed for fluorescence using BD Accuri C6 flow cytometer. Data were analyzed using the C6 cytometer software (BD Biosciences, San Jose, CA) or Attune Nxt Cytometer (Invitrogen, Carlsbad, CA).
Activation of Jurkat T cells with PHA and PMA induced the expression of PD-1 on the cell surface of about 25-30% of the stimulated Jurkat cells as compared to uninduced cells (Unstim) and induced a 1,000-fold increase in IL-2 cytokine production, respectively. […] Lastly, MNK inhibition by various different MNK inhibitors had no effect on cell viability. […] To this end, percentage of inhibition of PD-1 positive cells (10 μM) of more than 50% are labelled as “+++”, from 10% to 50% are labelled as “++”, and less than 10% are labelled as “+” (NA means “not available”).

[3] = High throughput thermodynamic solubility procedure; format: physicochemical; details: for solubility in fasted state simulated gastric fluid (FaSSGF), in words: pH value of 1.6
Experimental: In a 96-well plate, 10 mM DMSO stocks (50-100 uL) of each compound were dried under heated nitrogen flow using a SPE-96 plate dryer (upper flow rate=50 L/min, temperature=60° C., lower flow rate=20 L/min, temperature=80° C.). […] Compounds prepared as the free base were assessed in conditions with and without one equivalent of TFA added. The theoretical maximum concentrations of the aqueous solutions were 10 mM. Each well was capped and incubated for a period of 18 hours at room temperature or 37° C. Mixing of the solutions during the incubation period was performed by either shaking the plate at 750 rpm or adding StirStix (stainless steel capillaries) and agitating the mixture using a rotary magnetic tumble stirrer. After the incubation period, aliquots from each well were filtered. Solubility of all samples were quantified following comparison to standards of known concentration by HPLC-UV.

[4] = Fasted-State Simulated Intestinal Fluid (FaSSIF), pH 6.5, fassif, thermodynamic from solid, Fasted-State Simulated Intestinal Fluid, 18 hours incubation, theoretical maximum 10 mM, read-out: Aqueous Solubility FaSSIF (pH 6.5)
[5] = thermodynamic from solid, deionized water, 18 hours incubation, theoretical maximum 10 mM, read-out: Aqueous Solubility DI H2O

Row | SMILES | IC50 [1] | inhibition at 10 µM [2] | solubility in fasted state simulated gastric fluid (FaSSGF), in words [3] | solubility at 18 h [3, 4] | solubility at 18 h [3, 5] | solubility in DI water at 18 h ([3]; thermodynamic from solid, deionized water, 18 hours incubation, theoretical maximum 10 mM)
1 | Cc1cc(Nc2ncnc(N)c2C)c(=O)n2c1C(=O)NC21CCCN(C)C1 (racemic) [rac-1F, 6-((6-amino-5-methylpyrimidin-4-yl)amino)-1′,8-dimethyl-2H-spiro[imidazo[1,5-a]pyridine-3,3′-piperidine]-1,5-dione] | 1 to 10 nM | 10 to 50% | excellent solubility | 240 µM | 4300 µM | 
2 | Cc1cc(Nc2ncnc(N)c2C#N)c(=O)n2c1C(=O)NC21CCCN(C)C1 (racemic) [rac-2F] | 1 to 10 nM | 10 to 50% | excellent solubility | 79 µg/mL |  | 
3 | Cc1cc(Nc2ncnc(N)c2C#N)c(=O)n2c1C(=O)N[C@]21CCCN(C)C1 (single isomer, unassigned) [Compound 2Fa] | 1 to 10 nM | 10 to 50% | excellent solubility | 77 µg/mL | 1840 µg/mL | 
4 | Cc1cc(Nc2ncnc(N)c2C#N)c(=O)n2c1C(=O)N[C@@]21CCCN(C)C1 (single isomer, unassigned) [Compound 2Fb] | > 10 nM | 10 to 50% | excellent solubility | 151 µg/mL | 1770 µg/mL | 
5 | Cc1cc(Nc2ncnc(N)c2C)c(=O)n2c1C(=O)N[C@]21CCCN(C)C1 (stereo in doubt) [Compound 1Fa, (R)-6-((6-amino-5-methylpyrimidin-4-yl)amino)-1′,8-dimethyl-2H-spiro[imidazo[1,5-a]pyridine-3,3′-piperidine]-1,5-dione] | > 10 nM | 10 to 50% | excellent solubility | 125 µg/mL | > 1850 µg/mL | 
6 | Cc1cc(Nc2ncnc(N)c2C)c(=O)n2c1C(=O)N[C@@]21CCCN(C)C1 (stereo in doubt) [Compound 1Fb, (S)-6-((6-amino-5-methylpyrimidin-4-yl)amino)-1′,8-dimethyl-2H-spiro[imidazo[1,5-a]pyridine-3,3′-piperidine]-1,5-dione] | 1 to 10 nM | 10 to 50% | excellent solubility | 88 µg/mL | > 1850 µg/mL | 
7 | Cc1cc(Nc2ncnc(N)c2C)c(=O)n2c1C(=O)NC21CCN(CCC(F)(F)F)CC1 [Compound 3AA] | 1 to 10 nM | < 10% |  | 30 µM | 4400 µM | 
8 | Cc1cc(Nc2ncnc(N)c2Cl)c(=O)n2c1C(=O)NC21CCN(CCC(F)(F)F)CC1 [Compound 3BB] | < 1 nM | < 10% |  |  |  | 
9 | Cc1cc(Nc2ncnc(N)c2C)c(=O)n2c1C(=O)NC21CCCNC1 (stereo not shown) [Compound 3B] | > 10 nM |  |  |  |  | 
10 | Cc1cc(Nc2ncnc(N)c2Cl)c(=O)n2c1C(=O)NC21CCN(CCF)CC1 [Compound 3CC] | 1 to 10 nM | 10 to 50% |  | 40 µM | 770 µM | 
11 | Cc1cc(Nc2ncnc(N)c2Cl)c(=O)n2c1C(=O)NC21CCCNC1 (stereo not shown) [Compound 3C] | 1 to 10 nM | > 50% |  | 256 µM | 2600 µM | 
12 | Cc1cc(Nc2ncnc(N)c2Cl)c(=O)n2c1C(=O)NC21CCCN(C)C1 (stereo not shown) [Compound 3D] | 1 to 10 nM |  | excellent solubility | 110 µM | 3300 µM | 
13 | Cc1cc(Nc2ncnc(N)c2Cl)c(=O)n2c1C(=O)NC21CC(C)N(C)C(C)C1 (stereo not shown) [Compound 3EE] | 1 to 10 nM | > 50% |  |  |  | 
14 | Cc1cc(Nc2ncnc(N)c2C)c(=O)n2c1C(=O)NC21CCCN(CCC(F)(F)F)C1 (stereo not shown) [Compound 3E] | > 10 nM |  |  |  |  | 
15 | Cc1cc(Nc2ncnc(N)c2Cl)c(=O)n2c1C(=O)NC21CCN(C)C(C)(C)C1 (stereo not shown) [Compound 3FF] | < 1 nM | 10 to 50% |  |  |  | 
16 | Cc1cc(Nc2ncnc(N)c2Cl)c(=O)n2c1C(=O)NC21CCCN(CCC(F)(F)F)C1 (stereo not shown) [Compound 3F] | 1 to 10 nM |  |  |  | 240 µM | 
17 | Cc1cc(Nc2ncnc(N)c2C)c(=O)n2c1C(=O)NC21CCN(CC(C)(C)F)CC1 [Compound 3GG] | 1 to 10 nM |  |  |  |  | 

Row | SMILES | IC50 [1] | inhibition at 10 µM [2] | solubility in fasted state simulated gastric fluid (FaSSGF), in words [3] | solubility at 18 h [3, 4] | solubility at 18 h [3, 5] | solubility in DI water at 18 h ([3]; thermodynamic from solid, deionized water, 18 hours incubation, theoretical maximum 10 mM)
18 | Cc1cc(Nc2ncnc(N)c2C)c(=O)n2c1C(=O)NC21CCCN(CC(F)F)C1 (stereo not shown) [Compound 3G] | 1 to 10 nM |  |  |  |  | 
19 | Cc1cc(Nc2ncnc(N)c2C)c(=O)n2c1C(=O)NC21CCCN(CC2CC2)C1 (stereo not shown) [Compound 3H] | > 10 nM |  |  |  |  | 
20 | Cc1cc(Nc2ncnc(N)c2Cl)c(=O)n2c1C(=O)NC21CCCN(CC(F)F)C1 (stereo not shown) [Compound 3I] | < 1 nM |  |  |  |  | 
21 | Cc1cc(Nc2ncnc(N)c2Cl)c(=O)n2c1C(=O)NC21CCCN(CC2CC2)C1 (stereo not shown) [Compound 3J] | 1 to 10 nM |  |  |  |  | 
22 | CCN1CCCC2(C1)NC(=O)c1c(C)cc(Nc3ncnc(N)c3C)c(=O)n12 (stereo not shown) [Compound 3N] | 1 to 10 nM |  |  |  |  | 
23 | Cc1cc(Nc2ncnc(N)c2C)c(=O)n2c1C(=O)NC21CCCN2CCCC21 (stereo not shown) [Compound 3O] | < 1 nM |  |  |  |  | 
24 | Cc1cc(Nc2ncnc(N)c2Cl)c(=O)n2c1C(=O)NC21CCCN2CCCC21 (stereo not shown) [Compound 3P] | < 1 nM |  |  |  |  | 
25 | Cc1cc(Nc2ncnc(N)c2C)c(=O)n2c1C(=O)NC21CCCN(C(C)C)C1 (stereo not shown) [Compound 3Q] | 1 to 10 nM |  |  |  |  | 
26 | Cc1cc(Nc2ncnc(N)c2Cl)c(=O)n2c1C(=O)NC21CCCN(C(C)C)C1 (stereo not shown) [Compound 3R] | < 1 nM |  |  | 68 µg/mL |  | 
27 | Cc1cc(Nc2ncnc(N)c2C#N)c(=O)n2c1C(=O)NC21CCCNC1 (stereo not shown) [Compound 3U] | > 10 nM |  |  |  |  | 
28 | Cc1cc(Nc2ncnc(N)c2C)c(=O)n2c1C(=O)NC21CCCN(C(C)(C)C)C1 (stereo not shown) [Compound 3V] | > 10 nM |  |  | 107 µg/mL |  | 
29 | Cc1cc(Nc2ncnc(N)c2Cl)c(=O)n2c1C(=O)NC21CCCN(C(C)(C)C)C1 (stereo not shown) [Compound 3W] | 1 to 10 nM |  |  | 593 µg/mL |  | 
30 | Cc1cc(Nc2ncnc(N)c2Cl)c(=O)n2c1C(=O)N[C@@]21CCCN(C)C1 [Compound 3X] | < 1 nM |  | excellent solubility |  |  | 
31 | Cc1cc(Nc2ncnc(N)c2Cl)c(=O)n2c1C(=O)N[C@]21CCCN(C)C1 [Compound 3Y] | < 1 nM |  | excellent solubility |  |  | 
32 | Cc1cc(Nc2ncnc(N)c2Cl)c(=O)n2c1C(=O)NC21CCN(C2CC2)CC1 [Compound 3Z] | 1 to 10 nM |  |  |  |  | 
33 | Cc1cc(Nc2ncnc(N)c2Cl)c(=O)n2c1C(=O)NC21CCCCC1.Cl [Compound 4A, 6′-((6-amino-5-chloropyrimidin-4-yl)amino)-8′-methyl-2′H-spiro[cyclohexane-1,3′-imidazo[1,5-a]pyridine]-1′,5′-dione Hydrochloride, reference compound] |  | > 50% |  | 45 µM |  | 300 µM
